Measurements reported in patent US20190345250A1, “ANTIBODY DRUG CONJUGATES” (NOVARTIS AG, priority 2013, published 2019).

Tests used:
[1] = system: CHGA119 patient-derived primary gastric tumor xenograft model; assay: Antitumor activity and body weight in CHGA119 patient-derived xenograft
Text: In these studies, CHGA119 tumor fragments in size of 2mm ×2mm×2mm were implanted subcutaneously (s.c.) into female nu/nu athymic mice. […] Tumors were calipered twice a week.

complement factor Clq = target: T1, complement factor Clq (Homo sapiens, UniProt P02745+P02746+P02747); assay: Clq binding ELISA; conditions: antibody coated 25 to 0.02 μg/ml
T1 construct: purchased Sigma C1740-1mg
T1 sequence (P02745 23-245): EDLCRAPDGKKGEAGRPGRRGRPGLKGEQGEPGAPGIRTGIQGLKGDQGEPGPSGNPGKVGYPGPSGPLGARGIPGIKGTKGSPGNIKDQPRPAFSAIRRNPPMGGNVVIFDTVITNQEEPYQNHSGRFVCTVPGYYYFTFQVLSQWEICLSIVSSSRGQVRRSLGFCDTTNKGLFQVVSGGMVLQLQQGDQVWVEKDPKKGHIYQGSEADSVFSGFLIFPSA
T1 sequence (P02746 28-253): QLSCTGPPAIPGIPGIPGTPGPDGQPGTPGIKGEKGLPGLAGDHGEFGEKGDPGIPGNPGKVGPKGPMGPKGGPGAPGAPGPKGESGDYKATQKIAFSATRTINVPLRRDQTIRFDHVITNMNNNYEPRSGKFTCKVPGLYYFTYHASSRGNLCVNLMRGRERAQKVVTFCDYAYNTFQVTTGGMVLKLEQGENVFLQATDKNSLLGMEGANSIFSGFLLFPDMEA
T1 sequence (P02747 29-245): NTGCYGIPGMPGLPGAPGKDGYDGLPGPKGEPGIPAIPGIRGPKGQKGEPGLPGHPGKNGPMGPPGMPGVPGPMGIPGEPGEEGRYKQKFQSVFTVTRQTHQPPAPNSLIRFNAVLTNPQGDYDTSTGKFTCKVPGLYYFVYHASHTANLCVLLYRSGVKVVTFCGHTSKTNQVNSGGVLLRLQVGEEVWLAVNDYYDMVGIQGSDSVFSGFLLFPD
Method: In additional studies, the ability of the unconjugated anti-FGFR2 antibodies to bind the complement factor Clq was evaluated. The binding of the complement factor Clq is the initial step leading to complement dependent cytotoxicity (CDC) and cell lysis in vivo. In these studies the surface of the wells of 96-well microtiterplates (Nunc, Maxisorp, catalog # 439454) were coated with serial dilutions of the antibodies 12433, 12425, N297A_12425 and 10164 over night at 4° C. in the dark (all in a concentration range from 25 to 0.02 μg/ml). The commercially available antibody, Rituximab served as a positive control. In order to monitor the amount of bound antibody analyte on the microtiterplate, this procedure was performed twice per plate utilizing the second dilution (in triplicate) for determining the coating efficacy of the analyte to the plate. Clq binding was quantified by adding a constant concentration of Clq (Sigma; Complement component Clq catalog # C1740-1mg) and detected using a polyclonal goat-anti-human Clq antibody conjugated to Horse Radish Peroxidase HRP (AbD Serotec; Sheep Anti-Human Clq:HRP; Catalogue number 2221-5004P). The control of the coating efficiency was determined in the second dilution series with a peroxidase-conjugated goat-anti-human IgG antibody fragment (Jackson ImmunoResearch; catalog # 109-036-003; AffiniPure F(ab′2) fragment Goat Anti-Human IgG (H+L)). […]

[2] = CHGA119-tumor bearing mice, ADCs 10 mg/kg i.v. q2wk, BGJ398 10 mg/kg p.o. qd

Row | Compound | Host response: % body weight change (mean ± SEM) [1, 2] [%] | Host response: Mean body weight change (g ± SEM) [1, 2] [g] | Host response: Survival (survivors/total) [1, 2] | T/C ([1]; single agent, 10 mg/kg, after 5 weeks of treatment) [%] | Clq binding potency (EC50) (complement factor Clq)
1 | CCN1CCN(c2ccc(Nc3cc(N(C)C(=O)Nc4c(Cl)c(OC)cc(OC)c4Cl)ncn3)cc2)CC1 [BGJ398, 3-(2,6-Dichloro, 3,5-dimethoxy-phenyl)-1-{6-[4-(4-ethyl-piperazin-1-yl)-phenylamino]-pyrimidin-4-yl}-1-methyl-urea] | −3.7 ± 3 | -0.8 ± 0.7 | 8/8 | 33 | 
2 | Rituximab: commercially available antibody, positive control for Clq binding |  |  |  |  | about the same
